Laboratory results from US9302999B2, “Substituted triazoles as herbicides” (E. I. DU PONT DE NEMOURS AND COMPANY, priority 2012, dated 2016).

Tests used:
[1] = test system: field bindweed (Convolvulus arvensis); experiment: Test E pre-/postemergence: field bindweed; type: in vivo; details: scale 0 to 100
Source text: Seeds of plant species selected from corn (Zea mays), soybean (Glycine max), velvetleaf (Abutilon theophrasti), lambsquarters (Chenopodium album), poinsettia, wild (wild poinsettia, Euphorbia heterophylla), pigweed, palmer (palmer pigweed, Amaranthus palmeri), waterhemp (common waterhemp, Amaranthus rudis), smartweed (ladysthumb smartweed, Polygonum persicaria), surinam grass (Brachiaria decumbens), crabgrass, large (large crabgrass, Digitaria sanguinalis), crabgrass, Brazil (Brazilian crabgrass, Digitaria horizontalis), panicum, fall (fall panicum, Panicum dichotomiflorum), foxtail, giant (giant foxtail, Setaria faberii), foxtail, green (green foxtail, Setaria viridis), goosegrass (Eleusine indica), johnsongrass (Sorghum halepense), ragweed (common ragweed, Ambrosia elation), barnyardgrass (Echinochloa crus-galli), sandbur (southern sandbur, Cenchrus echinatus), arrowleaf sida (Sida rhombifolia), ryegrass, Italian (Italian ryegrass, Lolium multiflorum), dayflower, (VA) (Virginia dayflower, Commelina virginica), field bindweed (Convolvulus arvensis), cocklebur (common cocklebur, Xanthium strumarium), morningglory (Ipomoea coccinea), nightshade (eastern black nightshade, Solanum ptycanthum), kochia (Kochia scoparia), nutsedge, yellow (yellow nutsedge, Cyperus esculentus) and beggarticks (hairy beggarticks, Bidens pilosa) were planted into a silt loam soil and treated preemergence with test chemicals formulated in a non-phytotoxic solvent mixture which included a surfactant. At the same time, plants selected from these crop and weed species were planted in pots containing a growing medium comprising spaghnum peat moss, vermiculite, wetting agent and starter nutrients and treated with postemergence applications of some of the test chemicals formulated in the same manner. Plants ranged in height from 2 to 18 cm for postemergence treatments (1- to 4-leaf stage).
(§1) Treated plants and controls were maintained in a greenhouse for 14 to 21 days, after which time all species were compared to controls and visually evaluated. Plant response ratings, summarized in Table E, are based on a scale of 0 to 100 where 0 is no effect and 100 is complete control. A dash (-) response means no test result.

[2] = test system: lambsquarters (Chenopodium album); experiment: Test F pre-/postemergence: lambsquarters; type: in vivo; details: Preemergence
Source text: (§2) Seeds of plant species selected from corn (Zea mays), soybean (Glycine max), velvetleaf (Abutilon theophrasti), lambsquarters (Chenopodium album), poinsettia, wild (wild poinsettia, Euphorbia heterophylla), pigweed, palmer (palmer pigweed, Amaranthus palmeri), waterhemp (common waterhemp, Amaranthus rudis), surinam grass (Brachiaria decumbens), crabgrass, Brazil (Brazilian crabgrass, Digitaria horizontalis), panicum, fall (fall panicum Panicum dichotomiflorum), crabgrass, large (large crabgrass, Digitaria sanguinalis), foxtail, giant (giant foxtail, Setaria faberii), foxtail, green (green foxtail Setaria viridis), goosegrass (Eleusine indica), ragweed (common ragweed, Ambrosia elatior), barnyardgrass (Echinochloa crus-galli), sandbur (southern sandbur, Cenchrus echinatus), arrowleaf sida (Sida rhombifolia), ryegrass, Italian (Italian ryegrass, Lolium multiflorum), dayflower, VA (Virginia (VA) dayflower, Commelina virginica), field bindweed (Convolvulus arvensis), cocklebur (common cocklebur, Xanthium strumarium), morningglory (Ipomoea coccinea), nightshade (eastern black nightshade, Solanum ptycanthum), kochia (Kochia scoparia), nutsedge, yellow (yellow nutsedge, Cyperus esculentus), johnsongrass (Sorghum halepense), smartweed (ladysthumb smartweed, Polygonum persicaria), and beggarticks (hairy beggarticks, Bidens pilosa), were planted into a silt loam soil and treated preemergence with test chemicals formulated in a non-phytotoxic solvent mixture which included a surfactant. At the same time, plants selected from these crop and weed species and also pigweed (Amaranthus retroflexus), waterhemp_RES1 (ALS/Triazine resistant common waterhemp, Amaranthus rudis) and waterhemp_RES2 (ALS/HPPD resistant common waterhemp, Amaranthus rudis) were planted in pots containing a planting medium comprising spaghnum peat moss, vermiculite, wetting agent and starter nutrients treated with postemergence applications of some of the test chemicals formulated in the same manner. Plants ranged in height from 2 to 18 cm for postemergence treatments (1- to 4-leaf stage).
as §1

[3] = test system: barnyardgrass (Echinochloa crus-galli); experiment: Test F pre-/postemergence: barnyardgrass; type: in vivo
Source text: as §2, §1

Barnyardgrass = experiment: Test C preemergence: barnyardgrass; type: in vivo, Echinochloa crus-galli
Source text: Seeds of plant species selected from blackgrass (Alopecurus myosuroides), bromegrass, downy (downy bromegrass, Bromus tectorum), foxtail, green (green foxtail, Setaria viridis), ryegrass, Italian (Italian ryegrass, Lolium multiflorum), winter wheat (Triticum aestivum), wild oat (Avena fatua), galium (catchweed bedstraw, Galium aparine), bermudagrass (Cynodon dactylon), surinam grass (Brachiaria decumbens), cocklebur (common cocklebur, Xanthium strumarium), corn (Zea mays), large crabgrass (Digitaria sanguinalis), woolly cupgrass (Eriochloa villosa), foxtail, giant (giant foxtail, Setaria faberii), goosegrass (Eleusine indica), johnsongrass (Sorghum halepense), kochia (Kochia scoparia), lambsquarters (Chenopodium album), morningglory (Ipomoea coccinea), nightshade (eastern black nightshade, Solanum ptycanthum), nutsedge, yellow (yellow nutsedge, Cyperus esculentus), pigweed (Amaranthus retroflexus), ragweed (common ragweed, Ambrosia elation), soybean (Glycine max), common (oilseed) sunflower (Helianthus annuus), Russian thistle (Salsola kali) and velvetleaf (Abutilon theophrasti) were planted into a blend of loam soil and sand and treated preemergence with test chemicals formulated in a non-phytotoxic solvent mixture which included a surfactant.
(§3) Treated plants and controls were maintained in a greenhouse for 13 to 15 days, after which time all species were compared to controls and visually evaluated. Plant response ratings, summarized in Table C, are based on a scale of 0 to 100 where 0 is no effect and 100 is complete control. A dash (-) response means no test result.

Waterhemp [4] = experiment: Test C preemergence: waterhemp; type: in vivo, Amaranthus rudis; details: scale 0 to 100, 0 no effect, 100 complete control
Waterhemp [5] = experiment: Test C postemergence: waterhemp; type: in vivo
Source text: At the same time, plants selected from these crop and weed species and also barley (winter barley, Hordeum vulgare), canarygrass (Phalaris minor), chickweed (common chickweed, Stellaria media) windgrass (Apera spica-venti) and deadnettle (henbit deadnettle, Lamium amplexicaule) were planted in pots containing Redi-Earth® planting medium (Scotts Company, 14111 Scottslawn Road, Marysville, Ohio 43041) comprising spaghnum peat moss, vermiculite, wetting agent and starter nutrients and treated with postemergence applications of test chemicals formulated in the same manner. Plants ranged in height from 2 to 18 cm (1- to 4-leaf stage) for postemergence treatments.
as §3

[6] = 16 g ai/ha, scale 0 to 100 (0 no effect, 100 complete control)
[7] = 31 g ai/ha, scale 0 to 100 (0 no effect, 100 complete control)
[8] = Preemergence, 16 g ai/ha, scale 0 to 100 (0 no effect, 100 complete control)
[9] = Preemergence, 31 g ai/ha, scale 0 to 100 (0 no effect, 100 complete control)
[10] = Preemergence, 62 g ai/ha, scale 0 to 100
[11] = Preemergence, 125 g ai/ha, scale 0 to 100
[12] = 62 g ai/ha, scale of 0 to 100, 0 is no effect, 100 is complete control
[13] = 125 g ai/ha, scale 0 to 100, 0 no effect, 100 complete control
[14] = 62 g ai/ha, scale 0 to 100 (0 no effect, 100 complete control)
[15] = 31 g ai/ha, scale 0 (no effect) to 100 (complete control)

Cc1nn(-c2ccc(F)cc2)nc1Cc1ccnc(C(F)(F)F)c1 [Compound 16, 4-[[2-(4-fluorophenyl)-5-methyl-2H-1,2,3-triazol-4-yl]methyl]-2-(trifluoromethyl)pyridine]
Plant response rating: Field Bindweed ([1]; Preemergence, 8 g ai/ha): 0 | Plant response rating: Field Bindweed ([1]; Preemergence, 16 g ai/ha): 0 | Plant response rating: Field Bindweed ([1]; Preemergence, 31 g ai/ha): 0 | Plant response rating: Field Bindweed ([1]; Preemergence, 62 g ai/ha): 20 | Plant response rating: Field Bindweed ([1]; Preemergence, 125 g ai/ha): 50

Cc1nn(-c2ccc(C(F)(F)F)cc2)nc1Cc1ccnc(C(F)(F)F)c1 [Compound 47, 4-[[5-methyl-2-[4-(trifluoromethyl)phenyl]-2H-1,2,3-triazol-4-yl]methyl]-2-(trifluoromethyl)pyridine]
Plant response rating: Field Bindweed ([1]; Postemergence, 250 g ai/ha): 65 | Plant response rating: Field Bindweed ([1]; Postemergence, 31 g ai/ha): 40 | Plant response rating: Field Bindweed ([1]; Preemergence, 16 g ai/ha): 25 | Plant response rating: Field Bindweed ([1]; Preemergence, 31 g ai/ha): 25 | Plant response rating: Field Bindweed ([1]; Preemergence, 62 g ai/ha): 50 | Plant response rating: Field Bindweed ([1]; Preemergence, 125 g ai/ha): 85 | Plant response rating: Field Bindweed ([1]; Preemergence, 250 g ai/ha): 100

Cc1nn(-c2ccc(F)cc2)nc1Oc1ccnc(C(F)(F)F)c1 [Compound 129, 4-[[2-(4-fluorophenyl)-5-methyl-2H-1,2,3-triazol-4-yl]oxy]-2-(trifluoromethyl)pyridine]
Plant response rating: Field Bindweed ([1]; Preemergence, 8 g ai/ha): 0 | Plant response rating: Field Bindweed ([1]; Preemergence, 16 g ai/ha): 0 | Plant response rating: Field Bindweed ([1]; Preemergence, 31 g ai/ha): 0 | Plant response rating: Field Bindweed ([1]; Preemergence, 62 g ai/ha): 35 | Plant response rating: Field Bindweed ([1]; Preemergence, 125 g ai/ha): 35

Fc1ccc(-n2nc(Cc3ccnc(C(F)(F)F)c3)c(OCC(F)(F)F)n2)cc1 [Compound 142]
Plant response rating, Lambsquarters [2, 6]: 0 | Plant response rating, Lambsquarters [2, 7]: 65 | Plant response rating, Lambsquarters ([2]; 62 g ai/ha, scale 0 to 100): 98 | Plant response rating, Lambsquarters ([2]; 125 g ai/ha, scale 0 to 100): 98 | Plant response rating, Barnyardgrass [3, 8]: 0 | Plant response rating, Barnyardgrass [3, 9]: 5 | Plant response rating, Barnyardgrass [3, 10]: 30 | Plant response rating, Barnyardgrass [3, 11]: 80

Cc1nn(-c2ccc(F)c(F)c2)nc1Oc1ccnc(C(F)(F)F)c1 [Compound 145]
Plant response rating, Barnyardgrass ([3]; Postemergence, 8 g ai/ha, scale 0 to 100): 20 | Plant response rating, Barnyardgrass ([3]; Postemergence, 16 g ai/ha, scale 0 to 100): 20 | Plant response rating, Barnyardgrass ([3]; Postemergence, 31 g ai/ha, scale 0 to 100): 30 | Plant response rating, Barnyardgrass ([3]; Postemergence, 62 g ai/ha, scale 0 to 100): 30 | Plant response rating, Barnyardgrass ([3]; Postemergence, 125 g ai/ha, scale 0 to 100): 40

CCCc1nn(-c2ccc(F)cc2)nc1Cc1ccnc(C(F)(F)F)c1 [Compound 153]
Plant response rating, Barnyardgrass (Barnyardgrass; 31 g ai/ha, scale of 0 to 100, 0 is no effect, 100 is complete control): 90 | Plant response rating, Barnyardgrass (Barnyardgrass; [12]): 90 | Plant response rating, Barnyardgrass (Barnyardgrass; [13]): 100 | Plant response rating, Lambsquarters [2, 6]: 0 | Plant response rating, Lambsquarters [2, 7]: 65 | Plant response rating, Lambsquarters ([2]; 62 g ai/ha, scale 0 to 100): 98 | Plant response rating, Lambsquarters ([2]; 125 g ai/ha, scale 0 to 100): 98 | Plant response rating, Lambsquarters ([2]; 250 g ai/ha, scale 0 to 100): 98 | Plant response rating, Waterhemp (Waterhemp [4]; 125 g ai/ha): 100 | Plant response rating, Barnyardgrass [3, 8]: 5 | Plant response rating, Barnyardgrass [3, 9]: 10 | Plant response rating, Barnyardgrass [3, 10]: 10 | Plant response rating, Barnyardgrass [3, 11]: 75 | Plant response rating, Barnyardgrass ([3]; Preemergence, 250 g ai/ha, scale 0 to 100): 100 | Plant response rating, Waterhemp (Waterhemp [5]; [7]): 98 | Plant response rating, Waterhemp (Waterhemp [5]; [14]): 98 | Plant response rating, Waterhemp (Waterhemp [5]; 250 g ai/ha, scale 0 to 100): 98

CCc1nn(-c2ccc(F)cc2)nc1Oc1ccnc(C(F)(F)F)c1 [Compound 166]
Plant response rating, Barnyardgrass (Barnyardgrass; [15]): 5 | Plant response rating, Barnyardgrass (Barnyardgrass; [12]): 75 | Plant response rating, Barnyardgrass (Barnyardgrass; [13]): 98 | Plant response rating, Waterhemp (Waterhemp [4]; 125 g ai/ha): 100 | Plant response rating, Waterhemp (Waterhemp [4]; 250 g ai/ha): 100 | Plant response rating, Waterhemp (Waterhemp [5]; 250 g ai/ha, scale 0 to 100): 98

CCCc1nn(-c2ccc(C(F)(F)F)c(F)c2)nc1Oc1ccnc(C(F)(F)F)c1 [Compound 185]
Plant response rating, Barnyardgrass (Barnyardgrass; [15]): 55 | Plant response rating, Barnyardgrass (Barnyardgrass; [12]): 98 | Plant response rating, Barnyardgrass (Barnyardgrass; [13]): 100 | Plant response rating, Waterhemp (Waterhemp [5]; [14]): 90

CCOc1nn(-c2ccc(Br)cc2)nc1Cc1ccnc(C(F)(F)F)c1 [Compound 189]
Plant response rating, Barnyardgrass (Barnyardgrass; 16 g ai/ha, scale 0 (no effect) to 100 (complete control)): 25 | Plant response rating, Barnyardgrass (Barnyardgrass; [15]): 45 | Plant response rating, Barnyardgrass (Barnyardgrass; [12]): 98 | Plant response rating, Barnyardgrass (Barnyardgrass; [13]): 100 | Plant response rating, Waterhemp (Waterhemp [4]; 125 g ai/ha): 100
